Assay results from ChEMBL document CHEMBL5241106, “Discovery of a Dual Tubulin and Poly(ADP-Ribose) Polymerase-1 Inhibitor by Structure-Based Pharmacophore Modeling, Virtual Screening, Molecular Docking, and Biological Evaluation” (J Med Chem, 2021).
Active and inactive are the calls of the source. No cut-off for these calls is given here.

Tests used:
[1] = Selectivity index, ratio of IC50 for cytotoxicity against human MCF-10A cells to IC50 for cytotoxicity against human MDA-MB-231 cells; format: toxicity, cell-based; details: MCF-10A cells versus MDA-MB-231 cells, read-out: Ratio IC50
MCF-10A [2] = test: Induction of apoptosis in human MCF-10A cells at 0.5 to 12.5 uM incubated for 48 hrs by Annexin V-FITC/PI staining based flow cytometry; format: toxicity, cell-based; details: dose 0.5-12.5 µM
[3] = target: Serine/threonine-protein kinase pim-1 (Homo sapiens, UniProt P11309); test: Inhibition of PIM-1 (unknown origin)
MDA-MB-231 [4] = test: Induction of apoptosis in human MDA-MB-231 cells assessed as late apoptotic cells at 0.5 uM incubated for 48 hrs by Annexin V-FITC/PI staining based flow cytometry (reference value: 5.06%); format: functional
HeLa = test: Cytotoxicity against human HeLa cells assessed as inhibition of cell growth incubated for 72 hrs by MTT assay; format: functional, cell-based
MDA-MB-231 [5] = test: Induction of apoptosis in human MDA-MB-231 cells assessed as increase in cleaved PARP level at 0.5 to 12.5 uM incubated for 48 hrs by western blot analysis; format: functional, cell-based; details: dose 0.5-12.5 µM
[6] = Toxicity in BALB/c mouse xenografted with human MDA-MB-231 cells assessed as effect on WBC count at 1 to 5 mg/kg, ip administered every 4 days for 7 times measured at 48 hrs post-last administration; format: organism-based; details: in vivo, 720 h, dose 1-5 mg/kg, time 30 day
MDA-MB-231 [7] = test: Induction of cell cycle arrest in human MDA-MB-231 cells assessed as proportion of cells at G2/M phase at 0.5 uM incubated for 48 hrs by propidium iodide staining based flow cytometry (reference value: 9.81%); format: functional
MDA-MB-231 [8] = test: Induction of cell cycle arrest in human MDA-MB-231 cells assessed as decrease in cyclin B1 expression at 0.5 to 12.5 uM incubated for 48 hrs by western blot analysis; format: functional, cell-based; details: dose 0.5-12.5 µM
MDA-MB-231 [9] = test: Anticancer activity against human MDA-MB-231 cells xenografted in BALB/c mouse assessed as reduction in tumor weight at 5 mg/kg, ip administered for every 4 days for 7 times; format: functional, organism-based; details: time 28.0 day
MDA-MB-231 [10] = test: Induction of apoptosis in human MDA-MB-231 cells assessed as viable cells at 0.5 uM incubated for 48 hrs by Annexin V-FITC/PI staining based flow cytometry (reference value: 91.4%); format: functional; details: read-out: Activity
[11] = Renal toxicity in BALB/c mouse xenografted with human MDA-MB-231 cells assessed as effect on blood urea nitrogen level at 1 to 5 mg/kg, ip administered every 4 days for 7 times measured at 48 hrs post-last administration; format: organism-based; details: in vivo, 720 h, dose 1-5 mg/kg, time 30 day
HepG2 = test: Cytotoxicity against human HepG2 cells assessed as inhibition of cell growth incubated for 72 hrs by MTT assay; format: functional, cell-based; details: HepG2, 72 h
MDA-MB-231 [12] = test: Induction of apoptosis in human MDA-MB-231 cells assessed as necrotic cells at 0.5 uM incubated for 48 hrs by Annexin V-FITC/PI staining based flow cytometry (reference value: 1.86%); format: functional
MDA-MB-231 [13] = test: Induction of cell cycle arrest in human MDA-MB-231 cells assessed as increase in p-cdc2 expression at 0.5 to 12.5 uM incubated for 48 hrs by Western blot analysis; format: functional, cell-based; details: dose 0.5-12.5 µM
[14] = Renal toxicity in BALB/c mouse xenografted with human MDA-MB-231 cells assessed as effect on blood creatinine level at 1 to 5 mg/kg, ip administered every 4 days for 7 times measured at 48 hrs post-last administration; format: organism-based; details: in vivo, 720 h, dose 1-5 mg/kg, time 30 day
[15] = target: Poly [ADP-ribose] polymerase 1 (Homo sapiens, UniProt P09874); test: Inhibition of PARP-1 in human MDA-MB-231 cells assessed as induction of double strand DNA breaks by measuring increase in gammaH2AX level at 2.5 to 12.5 uM incubated for 48 hrs by western blotting analysis; format: cell-based; details: dose 2.5-12.5 µM
MDA-MB-231 [16] = test: Induction of apoptosis in human MDA-MB-231 cells assessed as viable cells at 12.5 uM incubated for 48 hrs by Annexin V-FITC/PI staining based flow cytometry (reference value: 91.4%); format: functional; details: read-out: Activity
SK-OV-3 = test: Cytotoxicity against human SK-OV-3 cells assessed as inhibition of cell growth incubated for 72 hrs by MTT assay; format: functional, cell-based; details: SK-OV-3, 72 h
[17] = target: Epidermal growth factor receptor (Homo sapiens, UniProt P00533); test: Inhibition of EGFR (unknown origin)
[18] = Toxicity in BALB/c mouse xenografted with human MDA-MB-231 cells assessed as change in liver morphological changes at 1 to 5 mg/kg, ip administered every 4 days for 7 times measured at 48 hrs post-last administration by H and E staining based fluorescence microscopic analysis; format: organism-based; details: in vivo, 720 h, dose 1-5 mg/kg, time 30 day
MDA-MB-231 [19] = test: Induction of apoptosis in human MDA-MB-231 cells assessed as viable cells at 2.5 uM incubated for 48 hrs by Annexin V-FITC/PI staining based flow cytometry (reference value: 91.4%); format: functional; details: read-out: Activity
CDK4/Cyclin D3 = CDK4/Cyclin D3 (Homo sapiens, UniProt P11802); test: Inhibition of CDK4/Cyclin D3 (unknown origin); format: protein-complex assay
MDA-MB-231 [20] = test: Induction of apoptosis in human MDA-MB-231 cells assessed as early apoptotic cells at 2.5 uM incubated for 48 hrs by Annexin V-FITC/PI staining based flow cytometry (reference value: 1.71%); format: functional
Tubulin (Homo sapiens) = Tubulin (Homo sapiens) (UniProt P68371+Q9H4B7+P0DPH7+P68366+Q13509+Q71U36+P04350+Q3ZCM7+P07437+P68363+Q9BQE3+Q6PEY2+Q13885+Q9BVA1+Q9BUF5); test: Inhibition of tubulin polymerization in human MDA-MB-231 cells assessed as blurred or disappeared nucleus and destruction of normal microtubule network at 12.5 uM incubated for 48 hrs by immunofluorescence assay; format: cell-based
[21] = Hepatotoxicity in BALB/c mouse xenografted with human MDA-MB-231 cells assessed as effect on blood AST level at 1 to 5 mg/kg, ip administered every 4 days for 7 times measured at 48 hrs post-last administration; format: toxicity, organism-based; details: in vivo, 720 h, dose 1-5 mg/kg, time 30 day
[22] = Toxicity in BALB/c mouse xenografted with human MDA-MB-231 cells assessed as increase in body weight at 1 to 5 mg/kg, ip administered every 4 days for 7 times; format: organism-based; details: in vivo, 672 h, dose 1-5 mg/kg, time 28 day
MCF-10A [23] = test: Induction of cell cycle arrest in human MCF-10A cells at 0.5 to 12.5 uM incubated for 48 hrs by propidium iodide staining based flow cytometry; format: toxicity; details: dose 0.5-12.5 µM
[24] = Hepatotoxicity in BALB/c mouse xenografted with human MDA-MB-231 cells assessed as effect on blood ALT level at 1 to 5 mg/kg, ip administered every 4 days for 7 times measured at 48 hrs post-last administration; format: toxicity, organism-based; details: in vivo, 720 h, dose 1-5 mg/kg, time 30 day
MDA-MB-231 [25] = test: Induction of apoptosis in human MDA-MB-231 cells assessed as late apoptotic cells at 12.5 uM incubated for 48 hrs by Annexin V-FITC/PI staining based flow cytometry (reference value: 5.06%); format: functional
Tubulin = test: Inhibition of tubulin polymerization (unknown origin) by turbidimetric analysis; format: protein-complex assay, Homo sapiens; details: read-out: IC50

Chain of Poly [ADP-ribose] polymerase 1 (P09874 whole entry): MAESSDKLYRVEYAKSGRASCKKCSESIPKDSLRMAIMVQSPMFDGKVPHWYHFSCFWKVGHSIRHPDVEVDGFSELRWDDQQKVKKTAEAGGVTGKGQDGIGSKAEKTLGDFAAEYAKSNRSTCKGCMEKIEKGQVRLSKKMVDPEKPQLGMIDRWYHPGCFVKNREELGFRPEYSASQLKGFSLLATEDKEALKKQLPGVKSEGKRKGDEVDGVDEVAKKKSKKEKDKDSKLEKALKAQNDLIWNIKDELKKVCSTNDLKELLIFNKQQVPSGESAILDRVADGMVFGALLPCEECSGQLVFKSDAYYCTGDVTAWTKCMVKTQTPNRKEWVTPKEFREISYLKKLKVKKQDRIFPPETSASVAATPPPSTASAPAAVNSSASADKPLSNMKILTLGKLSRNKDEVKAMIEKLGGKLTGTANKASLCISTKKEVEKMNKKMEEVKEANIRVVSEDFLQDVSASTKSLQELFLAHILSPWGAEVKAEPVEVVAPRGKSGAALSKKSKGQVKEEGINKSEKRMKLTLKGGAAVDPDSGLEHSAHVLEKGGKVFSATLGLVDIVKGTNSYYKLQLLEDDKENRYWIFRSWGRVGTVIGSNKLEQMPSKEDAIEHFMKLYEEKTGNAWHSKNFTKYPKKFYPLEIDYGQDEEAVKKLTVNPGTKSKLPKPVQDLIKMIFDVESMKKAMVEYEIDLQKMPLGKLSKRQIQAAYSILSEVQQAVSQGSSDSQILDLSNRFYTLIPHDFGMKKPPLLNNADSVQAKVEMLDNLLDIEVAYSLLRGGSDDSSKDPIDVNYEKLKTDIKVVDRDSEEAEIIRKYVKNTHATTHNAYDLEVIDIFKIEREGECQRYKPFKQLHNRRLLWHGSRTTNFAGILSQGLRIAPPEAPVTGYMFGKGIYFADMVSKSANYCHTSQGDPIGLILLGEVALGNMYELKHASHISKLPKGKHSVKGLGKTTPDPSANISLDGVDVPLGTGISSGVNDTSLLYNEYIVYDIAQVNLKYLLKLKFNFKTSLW
Chain of CDK4/Cyclin D3 (P11802 whole entry): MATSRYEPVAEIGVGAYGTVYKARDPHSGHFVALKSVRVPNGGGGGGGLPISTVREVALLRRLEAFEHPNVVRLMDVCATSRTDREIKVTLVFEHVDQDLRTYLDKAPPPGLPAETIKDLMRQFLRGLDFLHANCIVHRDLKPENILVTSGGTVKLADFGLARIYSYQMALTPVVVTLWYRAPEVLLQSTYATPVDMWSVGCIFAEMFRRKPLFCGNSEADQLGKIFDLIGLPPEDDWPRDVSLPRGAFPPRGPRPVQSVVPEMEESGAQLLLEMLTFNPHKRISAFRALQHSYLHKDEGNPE
Chain of CDK4/Cyclin D3 (P30281 whole entry, further chain): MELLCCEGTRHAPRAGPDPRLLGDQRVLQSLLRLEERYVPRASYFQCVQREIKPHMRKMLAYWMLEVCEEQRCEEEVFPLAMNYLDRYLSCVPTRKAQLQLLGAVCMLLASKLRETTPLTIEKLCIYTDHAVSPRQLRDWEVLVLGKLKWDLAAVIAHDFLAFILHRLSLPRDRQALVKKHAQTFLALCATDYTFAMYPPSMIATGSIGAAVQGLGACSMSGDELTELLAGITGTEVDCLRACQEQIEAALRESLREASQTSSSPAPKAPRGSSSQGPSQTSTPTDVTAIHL
Chain of Epidermal growth factor receptor (P00533 whole entry): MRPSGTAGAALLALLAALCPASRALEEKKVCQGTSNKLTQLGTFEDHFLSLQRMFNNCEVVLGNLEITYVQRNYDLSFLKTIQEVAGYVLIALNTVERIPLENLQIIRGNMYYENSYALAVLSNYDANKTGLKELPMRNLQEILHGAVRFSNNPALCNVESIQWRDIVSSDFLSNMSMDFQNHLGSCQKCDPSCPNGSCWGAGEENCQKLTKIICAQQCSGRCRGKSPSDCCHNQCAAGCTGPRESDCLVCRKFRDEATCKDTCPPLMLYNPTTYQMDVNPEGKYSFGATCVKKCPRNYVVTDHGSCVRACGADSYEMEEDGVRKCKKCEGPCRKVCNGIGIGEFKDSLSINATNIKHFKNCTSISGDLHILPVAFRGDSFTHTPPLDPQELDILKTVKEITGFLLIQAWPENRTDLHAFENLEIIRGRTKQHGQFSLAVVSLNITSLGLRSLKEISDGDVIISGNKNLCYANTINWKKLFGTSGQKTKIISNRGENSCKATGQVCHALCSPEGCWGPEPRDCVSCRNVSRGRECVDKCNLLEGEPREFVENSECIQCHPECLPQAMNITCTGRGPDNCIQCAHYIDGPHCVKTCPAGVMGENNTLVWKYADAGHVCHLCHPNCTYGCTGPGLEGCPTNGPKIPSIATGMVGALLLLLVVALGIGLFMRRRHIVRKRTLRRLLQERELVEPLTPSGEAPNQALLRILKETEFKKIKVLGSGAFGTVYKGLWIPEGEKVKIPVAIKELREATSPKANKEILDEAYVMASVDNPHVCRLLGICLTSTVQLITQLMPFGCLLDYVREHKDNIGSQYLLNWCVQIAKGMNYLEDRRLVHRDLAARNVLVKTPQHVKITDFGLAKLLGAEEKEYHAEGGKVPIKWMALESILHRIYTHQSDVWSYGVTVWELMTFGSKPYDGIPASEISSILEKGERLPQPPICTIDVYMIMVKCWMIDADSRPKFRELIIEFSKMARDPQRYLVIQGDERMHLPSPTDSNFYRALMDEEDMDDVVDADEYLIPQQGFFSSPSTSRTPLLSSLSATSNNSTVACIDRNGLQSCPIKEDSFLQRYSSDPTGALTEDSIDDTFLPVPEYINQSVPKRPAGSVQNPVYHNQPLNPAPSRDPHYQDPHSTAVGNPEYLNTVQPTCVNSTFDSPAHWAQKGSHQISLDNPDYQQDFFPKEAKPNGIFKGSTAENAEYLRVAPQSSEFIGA
Chain of Serine/threonine-protein kinase pim-1 (P11309 whole entry): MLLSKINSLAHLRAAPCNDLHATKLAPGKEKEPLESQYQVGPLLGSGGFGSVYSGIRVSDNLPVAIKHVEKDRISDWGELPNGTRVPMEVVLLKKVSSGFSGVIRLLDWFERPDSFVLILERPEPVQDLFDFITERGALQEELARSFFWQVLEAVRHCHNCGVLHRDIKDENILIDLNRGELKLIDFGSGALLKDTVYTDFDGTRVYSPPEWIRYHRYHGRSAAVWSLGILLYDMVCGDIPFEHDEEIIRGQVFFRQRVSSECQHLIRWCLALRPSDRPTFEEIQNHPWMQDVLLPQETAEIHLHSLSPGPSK

IC50 [3]: > 10000 nM | inhibition [15]: Active | IC50 [17]: > 10000 nM | IC50 (CDK4/Cyclin D3): > 10000 nM | inhibition (Tubulin (Homo sapiens)): Active | IC50 (Tubulin): 940 nM
Structure (SMILES): O=c1[nH]c(/C=C/c2cccc(F)c2)nc2ccccc12
selectivity ratio [1]: > 14 | Activity (MCF-10A [2]): Non-Toxic | Activity (MDA-MB-231 [4]): 6.39% | IC50 (HeLa): 1500 nM | Activity (MDA-MB-231 [5]): Active | Activity [6]: Non-Toxic | Activity (MDA-MB-231 [7]): 23.57% | Activity (MDA-MB-231 [8]): Active | Activity (MDA-MB-231 [9]): Active | viability at 0.5 µM (MDA-MB-231 [10]): 90.6% | Activity [11]: Non-Toxic | IC50 (HepG2): 900 nM | Activity (MDA-MB-231 [12]): 0.88% | Activity (MDA-MB-231 [13]): Active | Activity [14]: Non-Toxic | viability at 12.5 µM (MDA-MB-231 [16]): 83.4% | IC50 (SK-OV-3): 1700 nM | Activity [18]: Non-Toxic | viability at 2.5 µM (MDA-MB-231 [19]): 90.2% | Activity (MDA-MB-231 [20]): 2.23% | Activity [21]: Non-Toxic | Activity [22]: Toxic | Activity (MCF-10A [23]): Non-Toxic | Activity [24]: Non-Toxic | Activity (MDA-MB-231 [25]): 8.97%
